Assays:
[1] = molecular target: T1, Replicase polyprotein 1ab (Severe acute respiratory syndrome coronavirus 2, UniProt P0DTD1); experiment: Inhibition of SARS-CoV-2 RdRp
Procathepsin L = Procathepsin L (Homo sapiens, UniProt P07711); experiment: Inhibition of cathepsin L (unknown origin)
SARS-CoV-2 [2] = experiment: Anti-viral activity against SARS-CoV-2 infected in human A549 cells expressing hACE2 by firefly reporter assay; type: functional, organism-based; settings: Severe acute respiratory syndrome coronavirus 2, A549
[3] = molecular target: Replicase polyprotein 1ab (Human coronavirus 229E, UniProt P0C6X1); experiment: Inhibition of HCov-229E 3CLpro by FRET assay
[4] = Inhibition of DENV-2 NS2B/NS3 protease; set-up: species or system dengue virus type 2
SARS-CoV-2 [5] = experiment: Antiviral activity against wild type SARS-CoV-2 Omicron BA.1 infected in HEK293T cells assessed as reduction in viral replication measured after 48 hrs by Nano-Glo luciferase assay; type: functional, organism-based; settings: Severe acute respiratory syndrome coronavirus 2, Omicron BA.1, HEK-293T
SARS-CoV-2 [6] = experiment: Antiviral activity against wild type SARS-CoV-2 Omicron BA.5 infected in HEK293T cells assessed as reduction in viral replication measured after 48 hrs by Nano-Glo luciferase assay; type: functional, organism-based; settings: Severe acute respiratory syndrome coronavirus 2, HEK-293T
SARS-CoV-2 [7] = experiment: Antiviral activity against SARS-CoV-2 infected in human Calu-3 cells assessed as reduction in viral growth measured after 48 hrs by qRT-PCR analysis; type: functional, organism-based; settings: Severe acute respiratory syndrome coronavirus 2, Calu-3, 48 h
SARS-CoV-2 [8] = experiment: Antiviral activity against SARS-CoV-2 infected in human HPAEpiC cells assessed as reduction in viral growth; type: functional, organism-based; settings: Severe acute respiratory syndrome coronavirus 2, HPAEpiC
[9] = molecular target: T1, Replicase polyprotein 1ab; experiment: Inhibition of SARS-CoV-2 3CLPro

Chain of Replicase polyprotein 1ab (Human coronavirus 229E, UniProt P0C6X1) (P0C6X1 2966-3267 limits assumed): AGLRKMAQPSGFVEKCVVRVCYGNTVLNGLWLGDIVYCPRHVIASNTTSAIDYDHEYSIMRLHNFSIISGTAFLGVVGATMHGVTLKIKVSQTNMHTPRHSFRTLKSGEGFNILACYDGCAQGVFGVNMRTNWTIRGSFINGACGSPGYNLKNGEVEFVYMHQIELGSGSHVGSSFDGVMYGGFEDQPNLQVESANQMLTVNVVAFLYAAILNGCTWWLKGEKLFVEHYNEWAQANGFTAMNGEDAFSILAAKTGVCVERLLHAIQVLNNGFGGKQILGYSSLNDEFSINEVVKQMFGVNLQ
Chain of Procathepsin L (P07711 whole entry): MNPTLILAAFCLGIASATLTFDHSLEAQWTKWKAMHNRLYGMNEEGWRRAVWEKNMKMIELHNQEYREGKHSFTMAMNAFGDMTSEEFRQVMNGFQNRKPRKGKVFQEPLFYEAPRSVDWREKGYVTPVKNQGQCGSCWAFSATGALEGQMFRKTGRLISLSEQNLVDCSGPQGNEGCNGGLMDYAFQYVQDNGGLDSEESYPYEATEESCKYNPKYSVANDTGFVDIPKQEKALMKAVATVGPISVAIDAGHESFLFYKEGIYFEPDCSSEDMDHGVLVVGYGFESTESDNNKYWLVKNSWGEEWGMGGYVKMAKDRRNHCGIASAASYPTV

With `CCCCC/C=C\C/C=C\CCCCCCCCOC(=O)[C@H](C)NP(=O)(OC[C@H]1O[C@@](C#N)(c2ccc3c(N)ncnn23)[C@H](O)[C@@H]1O)Oc1ccccc1` (stereo partly specified) as the compound, how does the EC50 [1] read?
The EC50 was 440 nM.

With `CCOC(=O)/C=C/[C@H](C[C@@H]1CCNC1=O)NC(=O)[C@H](Cc1ccccc1)NC(=O)[C@@H](N)Cc1ccccc1` as the compound, how does the IC50 (Procathepsin L) read?
The IC50 was 60 nM.

What about the IC50 (SARS-CoV-2 [2]) of the same compound?
The IC50 was 8.2 nM.

What does the source list for `C=C1NC(=O)[C@]2(C)CSC(=N2)c2csc(n2)[C@]2(C)CSC(=N2)[C@@H]([C@@H](C)CC)NC(=O)[C@@H](C)NC(=O)/C(=C\C(C)C)COC(=O)c2csc(n2)[C@H](C(C)C)N(C)C(=O)[C@H](COC)NC1=O`?
IC50 [3]: 2390 nM; IC50 [4]: 560 nM

For `CCCCCCCCCC[C@@H]1CCC[C@]2(C=C(CO)[C@H]3CC(=O)C(C)=C[C@H]3O2)O1`, which EC50 (SARS-CoV-2 [5]) is on record?
Its EC50 is 100 nM.

What about the EC50 (SARS-CoV-2 [6]) of the same compound?
The EC50 was 160 nM.

Which IC50 (SARS-CoV-2 [7]) does the source give for `CCC(CC)COC(=O)[C@H](C)N[P@](=O)(OC[C@H]1O[C@@](c2noc(C(F)(F)F)n2)(c2ccc3c(N)ncnn23)[C@@H]2OC(C)(C)O[C@@H]21)Oc1ccccc1` here?
The IC50 was 19300 nM.

For `C=C1C(=O)[C@@]23C(=O)[C@@H](O)[C@@H]4C(C)(C)C[C@@H]5C(=O)OCC54[C@@H]2CC[C@@H]1[C@H]3OC(=O)C1Cc2ccccc2C1` (stereo partly specified), which EC50 (SARS-CoV-2 [8]) is on record?
The EC50 was 19 nM.

What does the source list for `CO[C@@H]1C[C@H](O[C@H]2C[C@](C)(CO)[C@@H]3CC[C@@]4(C)[C@@H]5CC[C@@H]6[C@H](CC(=O)[C@]7(C)C8=COC(N[C@H](C)C(C)C)=N[C@]8(C)[C@@H](O)[C@@H]8O[C@@]687)[C@@]5(C)CC[C@@H]4[C@@]3(C)[C@@H]2O)O[C@H](C)[C@H]1O`?
IC50 [3]: 6.6 nM; IC50 [9]: 74 nM
